# Test results: US11324725B2, “Compositions and methods for the inhibition of pruritus” (The United States of America, as represented by the …, priority 2017, dated 2022)
# Read-outs that look alike come from different tables or passages of the source.
# Target: T1, hNpr1 (Homo sapiens, UniProt P16066)
# T1 sequence (P16066 33-1061): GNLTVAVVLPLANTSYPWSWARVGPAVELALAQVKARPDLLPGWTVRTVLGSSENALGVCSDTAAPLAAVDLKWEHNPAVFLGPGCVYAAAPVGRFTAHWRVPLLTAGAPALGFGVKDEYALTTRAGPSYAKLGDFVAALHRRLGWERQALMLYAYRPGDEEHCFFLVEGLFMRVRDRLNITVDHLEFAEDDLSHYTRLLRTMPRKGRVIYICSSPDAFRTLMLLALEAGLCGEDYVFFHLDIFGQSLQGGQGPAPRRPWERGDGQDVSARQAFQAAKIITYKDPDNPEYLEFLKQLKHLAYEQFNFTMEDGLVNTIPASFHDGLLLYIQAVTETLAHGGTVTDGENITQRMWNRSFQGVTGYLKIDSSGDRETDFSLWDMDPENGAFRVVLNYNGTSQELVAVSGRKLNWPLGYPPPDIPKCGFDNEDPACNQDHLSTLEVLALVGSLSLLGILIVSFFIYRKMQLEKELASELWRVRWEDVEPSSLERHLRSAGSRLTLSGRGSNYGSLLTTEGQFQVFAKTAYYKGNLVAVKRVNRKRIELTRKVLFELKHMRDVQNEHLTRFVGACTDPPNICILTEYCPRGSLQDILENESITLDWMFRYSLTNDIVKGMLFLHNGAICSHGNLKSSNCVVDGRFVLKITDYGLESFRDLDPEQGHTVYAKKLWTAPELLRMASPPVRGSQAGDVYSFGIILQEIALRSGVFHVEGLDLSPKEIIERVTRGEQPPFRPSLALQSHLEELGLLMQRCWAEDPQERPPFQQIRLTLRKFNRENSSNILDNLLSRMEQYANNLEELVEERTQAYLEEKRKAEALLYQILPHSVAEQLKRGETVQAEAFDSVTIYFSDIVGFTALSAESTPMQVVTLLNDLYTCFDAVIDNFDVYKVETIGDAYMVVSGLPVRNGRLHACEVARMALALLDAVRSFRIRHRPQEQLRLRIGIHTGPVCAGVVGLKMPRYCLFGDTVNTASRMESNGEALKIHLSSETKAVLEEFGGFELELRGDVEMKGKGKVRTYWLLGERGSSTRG
# Assay: Cell-free hNpr1 membrane cyclase assay (cGMP ELISA)
# Assay type: biochemical
# [1] = Table 1, biochemical assay, read-out: IC50 biochem assay
# [2] = calculated with Cheng-Prusoff equation from Table 4, read-out: Ki hNpr1 cyclase assay [μM] (mean ± SEM)
# [3] = membranes of HEK-hNpr1-cGMP-sensor cells, hNppa-stimulated
# [4] = membranes of HEK-hNpr1-cGMP-sensor cells, hNppa-stimulated, read-out: IC50 [μM] (mean ± SEM), membrane cyclase assay
IC50 [1] [µM],Ki [2] [µM],"Imax [%] (mean ± SEM), membrane cyclase assay [3]",IC50 [4] [µM],Structure (SMILES),Ki [µM],"IC50 (IC50 [μM] (mean ± SEM), membrane cyclase assay, membranes of HEK-hNpr1-cGMP-sensor cells, hNppa-stimulated) [µM]","IC50 (IC50 biochem assay (M), Table 1, biochemical assay) [µM]"
0.766,0.11 ± 0.275,−99.4 ± 0.5,0.8 ± 1.9,"COc1ccccc1-c1n[nH]c2ncc(C(=O)NCc3cccnc3)nc12 [JS-6, 3-(2-methoxyphenyl)-N-(pyridin-3-ylmethyl)-1H-pyrazolo[3,4-b]pyrazine-5-carboxamide]",–,–,–
1.19,0.12 ± 0.13,−94.4 ± 5.4,0.8 ± 0.9,"N#Cc1ccccc1CN1CCCC(C(=O)NCc2ccccc2)CCNC(=O)CC1 (stereo not drawn) [JS-13, N-benzyl-1-(2-cyanobenzyl)-4-oxo-1,5-diazacycloundecane-8-carboxamide]",–,–,–
18.6,1.87 ± 0.723,−99.0 ± 0.0,12.7 ± 4.9,"CN(Cc1ccccc1)C(=O)c1cn2ccnc(-c3ccccc3)c2n1 [JS-14, N-benzyl-N-methyl-8-phenylimidazo[1,2-a]pyrazine-2-carboxamide]",–,–,–
2.2,0.41 ± 0.006,−96.1 ± 3.7,2.8 ± 0.04,"COc1cc(CN2CCC(C)(NC(C)=O)CC2)cc(-c2ccncc2)c1 [JS-4, N-(1-(3-methoxy-5-(pyridin-4-yl)benzyl)-4-methylpiperidin-4-yl)acetamide]",–,–,–
0.744,0.11 ± 0.09,−95.2 ± 3.3,0.7 ± 0.6,"Cc1nn2c(c1-c1ccccc1Oc1ccccc1)N(C(=O)Cc1ccc3c(c1)OCO3)CCC2 [JS-10, 2-(benzo[d][1,3]dioxol-5-yl)-1-(2-methyl-3-(2-phenoxyphenyl)-6,7-dihydropyrazolo[1,5-a]pyrimidin-4(5H)-yl)ethan-1-one]",–,–,–
2.17,0.32 ± 0.262,−95.3 ± 4.5,2.2 ± 1.8,"Cc1nn2c(c1-c1ccccc1OCc1ccccc1)N(C(=O)Cc1ccccn1)CCC2 [JS-9, 1-(3-(2-(benzyloxy)phenyl)-2-methyl-6,7-dihydropyrazolo[1,5-a]pyrimidin-4(5H)-yl)-2-(pyridin-2-yl)ethan-1-one]",–,–,–
0.122,0.02 ± 0.044,−98.4 ± 1.5,0.1 ± 0.3,"O=C(NCc1cccnc1)c1cnc2[nH]nc(-c3ccccc3)c2n1 [JS-7, 3-phenyl-N-(pyridin-3-ylmethyl)-1H-pyrazolo[3,4-b]pyrazine-5-carboxamide]",–,–,–

Structure (SMILES),IC50 [1] [µM],Ki [2] [µM],"Imax [%] (mean ± SEM), membrane cyclase assay [3]",IC50 [4] [µM],Ki [µM],"IC50 (IC50 [μM] (mean ± SEM), membrane cyclase assay, membranes of HEK-hNpr1-cGMP-sensor cells, hNppa-stimulated) [µM]","IC50 (IC50 biochem assay (M), Table 1, biochemical assay) [µM]"
"COc1ccc(C2(C(=O)N3CCC4(CC3)c3nccn3-c3ccccc3CN4C)CC2)cc1 [JS-12, (1-(4-methoxyphenyl)cyclopropyl)(5-methyl-5,6-dihydrospiro[benzo[f]imidazo[1,2-a][1,4]diazepine-4,4′-piperidin]-1′-yl)methanone]",–,–,−99.0 ± 1.0,–,0.1 ± 0.015,0.7 ± 0.1,0.614
"Cc1cc(CNC(=O)c2ccc3c(c2)n(CC2CC2)c(=O)n3C2CCCCC2)on1 [JS-11, 1-cyclohexyl-3-(cyclopropylmethyl)-N-((3-methylisoxazol-5-yl)methyl)-2-oxo-2,3-dihydro-1H-benzo[d]imidazole-5-carboxamide]",1.14,0.21 ± 0.008,−99.7 ± 0.2,1.4 ± 0.1,–,–,–
"Cc1noc(C)c1-c1cc(-c2ccccc2Oc2ccccc2)cn2cncc12 [JS-5, 3,5-dimethyl-4-(6-(2-phenoxyphenyl)imidazo[1,5-a]pyridin-8-yl)isoxazole]",0.141,0.02 ± 0.02,−99.8 ± 0.1,0.1 ± 0.1,–,–,–
"CCC(CC)c1cc([C@H]2CN3CC[C@H]2C[C@@H]3CNS(=O)(=O)c2cccs2)nc(-c2ccncc2)n1 [JS-3, N-(((2R,4S,5R)-5-(6-(pentan-3-yl)-2-(pyridin-4-yl)pyrimidin-4-yl)quinuclidin-2-yl)methyl)thiophene-2-sulfonamide]",3.98,0.58 ± 0.179,−98.2 ± 1.8,4 ± 1.2,–,–,–
"Cc1nn2c(c1-c1ccccc1OCc1ccccc1)N(C(=O)Cc1ccc3c(c1)OCO3)CCC2 [JS-8, 2-(benzo[d][1,3]dioxol-5-yl)-1-(3-(2-(benzyloxy)phenyl)-2-methyl-6,7-dihydropyrazolo[1,5-a]pyrimidin-4(5H)-yl)ethan-1-one]",0.336,0.05 ± 0.064,−98.0 ± 2.0,0.3 ± 0.4,–,–,–
